Assay results taken from patent US9072297B2, “Herbicidal composition” (ISHIHARA SANGYO KAISHA, LTD., priority 2010, dated 2015).

Experiments:
Format in all cases: in vivo
[1] = tested on: guineagrass (Panicum maximum Jacq.); experiment: Test Example 1: foliar application pot test, guineagrass; settings: Megathyrsus maximus, read-out: Growth inhibition rate (%) of guineagrass Measured value
Protocol: (§1) Upland field soil was put into a 1/1,000,000 ha pot, and seeds of various plants were sown. When the plants reached certain leaf stages (guineagrass (Panicum maximum Jacq.): 4.5 to 5.0 leaf stage, crabgrass (Digitaria ciliaris (Retz.) Koel): 3.0 to 4.2 leaf stage), a predetermined amount of each herbicidal composition was diluted with water (corresponding to 200 L/ha) containing 0.25 vol % of an agricultural adjuvant (tradename: Agral, manufactured by Syngenta) and applied by foliar application with a small sprayer.
(§2) On the 28th day after application, the state of growth of the plants were visually observed and evaluated in accordance with the following evaluation standard. The growth inhibition rate (%) (measured value) and the growth inhibition rate (%) (calculated value) calculated by the Colby's formula are shown in Tables 1 and 2.
(§3) Growth inhibition rate (%)= • 0:equivalent to the non-treated area to 100:complete kill

[2] = tested on: crabgrass (Digitaria ciliaris (Retz.) Koel); experiment: Test Example 1: foliar application pot test, crabgrass; settings: read-out: Growth inhibition rate (%) of crabgrass Measured value
Protocol: as §1, §2, §3

[3] = tested on: surinam grass (Brachiaria decumbens Stapf.); experiment: Test Example 3: soil application pot test, surinam grass; settings: Urochloa decumbens, read-out: Growth inhibition rate (%) of surinam grass Measured value
Protocol: as §3
(§4) Upland field soil was put into a 1/1,000,000 ha pot, and seeds of surinam grass (Brachiaria decumbens Stapf.) were sown. On the day after application, a predetermined amount of each herbicidal composition was diluted with water corresponding to 200 L/ha and applied by soil application with a small sprayer.
(§5) On the 42nd day after application, the state of growth of the plant was visually observed.

[4] = tested on: crabgrass (Digitaria ciliaris (Retz.) Koel); experiment: Test Example 7: foliar application pot test, crabgrass 4.5 leaf stage; settings: read-out: Growth inhibition rate (%) of crabgrass Measured value; for inhibition at 300 g/ha: foliar
Protocol: as §3
(§6) Upland field soil was put into a 1/1,000,000 ha pot, and seeds of crabgrass (Digitaria ciliaris (Retz.) Koel) were sown. When crabgrass reached 4.5 leaf stage, a predetermined amount of each herbicidal composition was diluted with water (corresponding to 200 L/ha) containing 0.25 vol % of an agricultural adjuvant (tradename: Agral, manufactured by Syngenta) and applied by foliar application with a small sprayer.
(§7) On the 28th day after application, the state of growth of the plant was visually observed.

[5] = tested on: surinam grass (Brachiaria decumbens Stapf.); experiment: Test Example 2: foliar application pot test, surinam grass; settings: Urochloa decumbens, read-out: Growth inhibition rate (%) of surinam grass Measured value
Protocol: as §3
as §6, with “surinam grass (Brachiaria decumbens Stapf.)” for “crabgrass (Digitaria ciliaris (Retz.) Koel)”, “the surinam grass” for “crabgrass”, “2.8 to 3.2” for “4.5”
as §7

[6] = tested on: field bindweed (Convolvulus arvensis L.); experiment: Test Example 4: soil application pot test, field bindweed; settings: read-out: Growth inhibition rate (%) of field bindweed Measured value
Protocol: as §3
as §4, with “field bindweed (Convolvulus arvensis L.)” for “surinam grass (Brachiaria decumbens Stapf.)”
as §5

[7] = tested on: crabgrass (Digitaria ciliaris (Retz.) Koel); experiment: Test Example 6: foliar application pot test, crabgrass 3.8 to 4.0 leaf stage; settings: read-out: Growth inhibition rate (%) of crabgrass Measured value
Protocol: as §3
as §6, with “3.8 to 4.0” for “4.5”
as §7

[8] = tested on: crabgrass (Digitaria ciliaris (Retz.) Koel); experiment: Test Example 5: foliar application pot test, crabgrass (MonFast adjuvant); settings: read-out: Growth inhibition rate (%) of crabgrass Measured value
Protocol: as §3
as §6, with “3.0 to 4.2” for “4.5”, “0.2” for “0.25”, “MonFast,” for “Agral,”, “Monsanto)” for “Syngenta)”
as §7

CNC(=O)N(C)c1nnc(C(C)(C)C)s1 [Tebuthiuron, 1-(5-tertiarybutyl-1,3,4-thiadiazol-2-yl)-1,3-dimethylurea]
inhibition at 500 g/ha ([1]; foliar): 15%
inhibition at 500 g/ha ([2]; foliar): 0%
inhibition at 500 g/ha ([3]; soil): 28%
inhibition at 300 g/ha [4]: 17%

CN(C)C(=O)Nc1ccc(Cl)c(Cl)c1 [Diuron, 3-(3,4-dichlorophenyl)-1,1-dimethylurea]
inhibition at 1250 g/ha ([5]; foliar): 0%
inhibition at 1250 g/ha ([6]; soil): 0%
inhibition at 3000 g/ha ([7]; foliar): 80%

COc1cc(OC)nc(NC(=O)NS(=O)(=O)c2ncccc2C(F)(F)F)n1 [Flazasulfuron, 1-(4,6-dimethoxypyrimidin-2-yl)-3-(3-trifluoromethyl-2-pyridylsulfonyl)urea]
inhibition at 20 g/ha ([1]; dose 20 g/ha, foliar application, 4.5 to 5.0 leaf stage, 28th day after application): 90%
inhibition at 37.5 g/ha ([1]; dose 37.5 g/ha, foliar application, 4.5 to 5.0 leaf stage, 28th day after application): 92%
inhibition at 25 g/ha ([2]; dose 25 g/ha, foliar application, 3.0 to 4.2 leaf stage, Agral, 28th day after application): 40%
inhibition at 37.5 g/ha ([5]; dose 37.5 g/ha, foliar application, 2.8 to 3.2 leaf stage, 28th day after application): 45%
inhibition at 25 g/ha ([3]; dose 25 g/ha, soil application, 42nd day after application): 70%
inhibition at 37.5 g/ha ([6]; dose 37.5 g/ha, soil application, 42nd day after application): 25%
inhibition at 30 g/ha ([8]; dose 30 g/ha, foliar application, 3.0 to 4.2 leaf stage, MonFast, 28th day after application): 50%
inhibition at 40 g/ha ([8]; dose 40 g/ha, foliar application, 3.0 to 4.2 leaf stage, MonFast, 28th day after application): 58%
inhibition at 15 g/ha ([7]; dose 15 g/ha, foliar application, 3.8 to 4.0 leaf stage, Agral, 28th day after application): 40%
inhibition at 100 g/ha ([4]; dose 100 g/ha, foliar application, 4.5 leaf stage, Agral, 28th day after application): 73%

CON(C)C(=O)Nc1ccc(Br)cc1 [Metobromuron, 3-(4-bromophenyl)-1-methoxy-1-methylurea]
inhibition at 500 g/ha ([8]; foliar): 0%
inhibition at 1000 g/ha ([8]; foliar): 0%
inhibition at 300 g/ha [4]: 5%
